Results reported in PubChem BioAssay AID330 (DTP/NCI, 2004).
Values joined by “and” are separate entries in the source; they are usually repeats but may differ in a detail not shown here. Equal entries are not always repeated. Toxic doses and inconclusive results are not listed. How the source made its calls: active means survival T/C of 150% or more; inactive means T/C below 125% in these data.

Tested on: P388 leukemia ip, CD2F1 mice, survival T/C
Experiment: NCI In Vivo Anticancer Drug Screen. Data for tumor model P388 Leukemia (intraperitoneal) in CD2F1 (CDF1) mice
Details: endpoint: median survival time, higher = longer survival
Procedure, shortened: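 Mice carrying the transplanted tumor received test compound or vehicle. Survival was recorded in each group, and the value is the treated-group measurement divided by that of the vehicle-treated control group.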

[1] = dose: 12.5 mg/kg/injection, schedule: Q01DX009 (ip), vehicle: saline with Tween-80
[2] = dose: 25.0 mg/kg/injection, schedule: Q01DX009 (ip), vehicle: saline with Tween-80
[3] = dose: 100.0 mg/kg/injection, schedule: Q01DX009 (ip), vehicle: saline with Tween-80
[4] = dose: 100.0 mg/kg/injection, schedule: Q04DX003 (ip), vehicle: saline
[5] = dose: 200.0 mg/kg/injection, schedule: Q04DX003 (ip), vehicle: saline
[6] = dose: 400.0 mg/kg/injection, schedule: Q04DX003 (ip), vehicle: saline
[7] = dose: 50.0 mg/kg/injection, schedule: Q01DX005 (ip), vehicle: Klucel (hydroxypropylcellulose) (HPC)
[8] = dose: 100.0 mg/kg/injection, schedule: Q01DX005 (ip), vehicle: Klucel (hydroxypropylcellulose) (HPC)
[9] = dose: 200.0 mg/kg/injection, schedule: Q01DX005 (ip), vehicle: Klucel (hydroxypropylcellulose) (HPC)
[10] = dose: 50.0 mg/kg/injection, schedule: Q01DX005 (ip), vehicle: saline with Tween-80
[11] = dose: 100.0 mg/kg/injection, schedule: Q01DX005 (ip), vehicle: saline with Tween-80
[12] = dose: 200.0 mg/kg/injection, schedule: Q01DX005 (ip), vehicle: saline with Tween-80
[13] = dose: 60.0 mg/kg/injection, schedule: Q01DX005 (ip), vehicle: Klucel (hydroxypropylcellulose) (HPC)
[14] = dose: 120.0 mg/kg/injection, schedule: Q01DX005 (ip), vehicle: Klucel (hydroxypropylcellulose) (HPC)
[15] = dose: 240.0 mg/kg/injection, schedule: Q01DX005 (ip), vehicle: Klucel (hydroxypropylcellulose) (HPC)

Measured: T/C

C=CC(=O)NCCSSCCNC(=O)C=C
inactive: dose: 6.25 mg/kg/injection, schedule: Q01DX009 (ip), vehicle: saline with Tween-80 108 % of control | [1] 99 % of control | [2] 93 % of control | [3] 98 % of control

CCO/C=C1\SC(=S)N(c2ccc(O)cc2)C1=O
inactive: [4] 113 % of control | [5] 113 % of control | [6] 109 % of control

Cc1cc(S(=O)(=O)c2ccccc2C(=O)O)nc2c1ccc1ccccc12
inactive: [7] 105 % of control | [8] 103 % of control | [9] 103 % of control

CC(C)=Cn1ccccc1=O
inactive: dose: 25.0 mg/kg/injection, schedule: Q01DX001 (ip), vehicle: saline 104 % of control and 108 % of control | dose: 50.0 mg/kg/injection, schedule: Q01DX001 (ip), vehicle: saline 99 % of control and 98 % of control | dose: 100.0 mg/kg/injection, schedule: Q01DX001 (ip), vehicle: saline 120 % of control and 95 % of control and 98 % of control | dose: 200.0 mg/kg/injection, schedule: Q01DX001 (ip), vehicle: saline 94 % of control | dose: 400.0 mg/kg/injection, schedule: Q01DX001 (ip), vehicle: saline 108 % of control

COCCOCCOCCOCCO
inactive: [10] 102 % of control | [11] 100 % of control | [12] 104 % of control

CCCCn1c(C)nc2cc(C(F)(F)F)cc(N)c21
inactive: dose: 50.0 mg/kg/injection, schedule: Q01DX009 (ip), vehicle: saline with Tween-80 99 % of control | [3] 101 % of control | dose: 200.0 mg/kg/injection, schedule: Q01DX009 (ip), vehicle: saline with Tween-80 108 % of control

COC(=O)C1=C(C(=O)OC)C2C3CC4C(C13)C42
inactive: dose: 9.4 mg/kg/injection, schedule: Q01DX009 (none), vehicle: saline 105 % of control | dose: 18.75 mg/kg/injection, schedule: Q01DX009 (none), vehicle: saline 106 % of control | dose: 37.5 mg/kg/injection, schedule: Q01DX009 (none), vehicle: saline 105 % of control | dose: 75.0 mg/kg/injection, schedule: Q01DX009 (none), vehicle: saline 99 % of control

N#CC1CCCC2OCC(c3ccccc3)N12 (stereo not drawn)
inactive: [13] 119 % of control | [14] 119 % of control | [15] 117 % of control

[Co+3].[NH-]CC[NH-].[NH-]CC[NH-].[NH-]CC[SH2+].[O-][Cl+3]([O-])([O-])O
inactive: [4] 100 % of control | [5] 100 % of control | [6] 102 % of control | dose: 800.0 mg/kg/injection, schedule: Q04DX003 (ip), vehicle: saline 99 % of control

COC(=O)/C(C#N)=C/c1cccnc1
inactive: [7] 101 % of control | [8] 101 % of control | [9] 107 % of control

Cc1cc(N2C(=O)CSC2=S)c([N+](=O)[O-])cc1C
inactive: dose: 50.0 mg/kg/injection, schedule: Q01DX009 (ip), vehicle: suspension in saline 91 % of control | dose: 100.0 mg/kg/injection, schedule: Q01DX009 (ip), vehicle: suspension in saline 89 % of control

CC(C)CC([N+](C)(C)C)P(=O)([O-])O (stereo not drawn)
inactive: dose: 100.0 mg/kg/injection, schedule: Q01DX009 (ip), vehicle: saline 100 % of control | dose: 200.0 mg/kg/injection, schedule: Q01DX009 (ip), vehicle: saline 95 % of control | dose: 400.0 mg/kg/injection, schedule: Q01DX009 (ip), vehicle: saline 100 % of control

C/C1=C/C2=CC(C)C[C@@H]2C(=O)[C@]2(C)C(=O)CC(C)(C)[C@H]2CC1=O (stereo partly drawn)
inactive: dose: 0.13 mg/kg/injection, schedule: Q01DX009 (ip), vehicle: Klucel (hydroxypropylcellulose) (HPC) 100 % of control | dose: 0.25 mg/kg/injection, schedule: Q01DX009 (ip), vehicle: Klucel (hydroxypropylcellulose) (HPC) 103 % of control | dose: 0.25 mg/kg/injection, schedule: Q01DX009 (ip), vehicle: saline with Tween-80 99 % of control | dose: 0.5 mg/kg/injection, schedule: Q01DX009 (ip), vehicle: Klucel (hydroxypropylcellulose) (HPC) 102 % of control | dose: 0.5 mg/kg/injection, schedule: Q01DX009 (ip), vehicle: saline with Tween-80 108 % of control | dose: 1.0 mg/kg/injection, schedule: Q01DX009 (ip), vehicle: Klucel (hydroxypropylcellulose) (HPC) 106 % of control | dose: 1.0 mg/kg/injection, schedule: Q01DX009 (ip), vehicle: saline with Tween-80 99 % of control | dose: 2.0 mg/kg/injection, schedule: Q01DX009 (ip), vehicle: saline with Tween-80 101 % of control | dose: 125.0 micrograms/kg/injection, schedule: Q01DX009 (ip), vehicle: saline + alcohol 105 % of control | dose: 250.0 micrograms/kg/injection, schedule: Q01DX009 (ip), vehicle: saline + alcohol 103 % of control | dose: 500.0 micrograms/kg/injection, schedule: Q01DX009 (ip), vehicle: saline + alcohol 112 % of control | dose: 1000.0 micrograms/kg/injection, schedule: Q01DX009 (ip), vehicle: saline + alcohol 107 % of control | dose: 2000.0 micrograms/kg/injection, schedule: Q01DX009 (ip), vehicle: saline + alcohol 105 % of control

Oc1cc2c(cc1C(c1ccc(Cl)cc1)N1CCOCC1)OCO2 (stereo not drawn)
inactive: dose: 60.0 mg/kg/injection, schedule: Q01DX005 (ip), vehicle: saline with Tween-80 102 % of control | dose: 120.0 mg/kg/injection, schedule: Q01DX005 (ip), vehicle: saline with Tween-80 111 % of control | dose: 240.0 mg/kg/injection, schedule: Q01DX005 (ip), vehicle: saline with Tween-80 124 % of control

COc1ccc(/C=C/c2nnc(N)o2)cc1
inactive: [10] 100 % of control | [11] 101 % of control | [12] 105 % of control

CCN([NH-])C(=S)[S-].CCN([NH-])C(=S)[S-].[Ni]
inactive: dose: 6.25 mg/kg/injection, schedule: Q04DX003 (ip), vehicle: Klucel (hydroxypropylcellulose) (HPC) 99 % of control | dose: 12.5 mg/kg/injection, schedule: Q04DX003 (ip), vehicle: Klucel (hydroxypropylcellulose) (HPC) 107 % of control | dose: 25.0 mg/kg/injection, schedule: Q04DX003 (ip), vehicle: Klucel (hydroxypropylcellulose) (HPC) 103 % of control

CC1(C)CC[C@]2(C(=O)O)CC[C@]3(C)C(=CC[C@@H]4[C@@]5(C)CC[C@H](O)C(C)(C)[C@@H]5CC[C@]43C)[C@@H]2C1
inactive: [1] 108 % of control | [2] 99 % of control

CC(=O)Oc1cc(C)cc2c1[C@@]1(C)CC[C@H]3[C@@H](CC[C@H]4C[C@@H](OC(C)=O)CC[C@@]43C)[C@@H]1C2
inactive: [7] 96 % of control | [8] 96 % of control | [9] 107 % of control

CCN(CC)CCCC(C)Nc1cc(OC)c2nc(C)cc(OC)c2c1OC (stereo not drawn)
inactive: dose: 1.56 mg/kg/injection, schedule: Q01DX009 (ip), vehicle: saline 100 % of control | dose: 3.12 mg/kg/injection, schedule: Q01DX009 (ip), vehicle: saline 89 % of control | dose: 6.25 mg/kg/injection, schedule: Q01DX009 (ip), vehicle: saline 91 % of control and 97 % of control

O=C1CSC(=Nc2ccc(F)cc2F)N1Cc1cccs1
inactive: [13] 102 % of control | [14] 113 % of control | [15] 103 % of control
